Results from publication PMC4655410, “Hepatitis B virus efficiently infects non-adherent hepatoma cells via human sodium taurocholate cotransporting polypeptide” (Scientific Reports, 2015).
“Also recorded” adds a separate entry of the source. Like-named read-outs stand apart in the source and are kept apart here.

Columns and labels:
[1] = test system: HBV; assay: Inhibition of HBV infection of non-adherent HepG2/NTCPA3 cells (intracellular HBV RNA, real-time qRT-PCR); assay type: cell-based, Hepatitis B virus (genotype D); conditions: for IC50: Hepatitis B virus, read-out: IC50 (anti-HBV activity); for Selectivity Index: SI from CC50 and IC50
Method: In the case of the non-adherent cell conditions of infection, HepG2 cells, the derived cells, or differentiated HepaRG cells were harvested using 0.25% trypsin/ethylenediaminetetraacetic acid (EDTA) solution (Sigma). After washing once with 10% FBS-DMEM, the resulting cells were suspended in the primary hepatocyte maintenance medium (PMM) consisting of William’s E medium (Sigma) supplemented with 2 mM L-glutamine, 5 μg/ml transferrin (Sigma), 10 ng/ml recombinant human epidermal growth factor (PeproTech, Rocky Hill, NJ, USA), 3 μg/ml insulin, 18 μg/ml hydrocortisone, 40 ng/ml dexamethasone (Sigma), 5 ng/ml sodium selenite (Sigma), 2% DMSO (Wako), 100 U/ml penicillin, and 100 μg/ml streptomycin (Gibco). The suspended cells (1.25 × 10^5 cells) were added to each well following the addition of virus, and were then immediately mixed well in 0.5 ml of PMM supplemented with 4% polyethylene glycol (PEG) 8000 (Sigma) and 2% FBS in each well of a 24-well collagen-coated plate. The resulting mixtures were incubated at 37 °C (0 days post-infection, dpi).
The cells infected in non-adherent or adherent phase were washed three times with phosphate-buffered saline (PBS) at 1 dpi and incubated in fresh PMM supplemented with 10% FBS. The cells were re-seeded at 2 dpi at a density of 2 × 10^4 cells/well (48-well collagen-coated plate) or 4 × 10^4 cells/well (24-well collagen-coated plate) and maintained in PMM supplemented with 10% FBS. The cells and the culture supernatants were collected at each indicated dpi in order to evaluate the amounts of viral proteins, RNA, and DNA.
Simvastatin, proscillaridin A, bufalin, convallatoxin, digitoxin, digoxin, and azelastine were purchased from Sigma. Fluvastatin was from Cayman Chemical Co. (Ann Arbor, MI, USA). The lipopeptide myr-47WT, which is an N-terminally myristoylated peptide consisting of aa 2 to 47 of the preS1 region of HBV, and myr-47N9K, in which Asn at the 9th position is substituted with Lys, were synthesized by Scrum Co. (Tokyo, Japan)[11]. […] These cells (1 × 10^6 cells/ml) were preincubated at room temperature for 1 h in PMM supplemented with a peptide at 400 nM or a compound at the indicated concentration, and were then infected with HBV at 1,000 GEq/cell in the presence of the preS1 peptide or compounds at the same concentration as in the preincubation. The resulting cells were washed three times with PBS at 1 dpi and incubated in fresh PMM supplemented with 10% FBS. Cells were then re-seeded at 2 dpi at a density of 2 × 10^4 cells/well (48-well plate) or 4 × 10^4 cells/well (24-well plate) and maintained in PMM supplemented with 10% FBS. The resulting cells and culture supernatants were collected at each indicated dpi in order to evaluate viral RNA and DNA.
(§1) Total RNA was extracted using the RNeasy Mini Kit (Qiagen, Valencia, CA, USA), followed by DNase digestion using the TURBO DNA-free kit (Ambion, Austin, TX, USA). The resulting RNA preparation was reverse-transcribed using ReverTra Ace qPCR RT Master Mix (TOYOBO, Tokyo, Japan) according to the manufacturer’s protocol. Viral DNA was extracted from culture supernatants using the QIAamp DNA Mini Kit (Qiagen) according to the manufacturer’s protocol. The amounts of viral DNA and RNA were measured by real-time quantitative PCR (qPCR) and real-time quantitative reverse transcriptase (qRT)-PCR, respectively. The amounts of intracellular HBV RNA and supernatant HBV DNA were estimated according to the method described by Yan et al.[11]. The amounts of NTCP and GAPDH mRNAs were estimated by real-time qRT-PCR using the primer pairs 5′-[…]-3′ and 5′-[…]-3′, and 5′-[…]-3′ and 5′-[…]-3′, respectively. Real-time PCR was carried out using the Fast SYBER Green Master Mix (Applied BioSystems) and StepOne Plus Real-Time PCR System (Applied BioSystems). The amounts of HBs and HBe antigens in culture supernatants were estimated by a chemiluminescent immunoassay (SRL Inc., Tokyo, Japan).
Supplementary Figure 4. […]

[2] = in vitro; conditions: human
Method: (§2) Cell viability was evaluated using the MTS assay system (CellTiter 96 AQueous One Solution Cell Proliferation Assay, Promega, Madison, WI, USA).
(§3) real-time qRT-PCR in cells harvested at 6 dpi (black bars). Cell viability was measured
(§4) by the MTS assay (black line with a triangle). i. […]
(§5) non-adherent phase (black columns) in the presence of 0, 10 or 30 nM proscillaridin A. […]

[3] = test system: HBV; assay: Effect on HBV replication, compound added after infection (intracellular HBV RNA); assay type: cell-based, Hepatitis B virus (genotype D); conditions: compound added at 3 dpi, harvested at 6 dpi, HepG2/NTCPA3, HBV 1,000 GEq/cell
Method: The resulting cells were harvested at 6 dpi. The amount of intracellular HBV RNA was quantified by real-time qRT-PCR (black bars) and is presented as the percentage of the control value (DMSO). Cell viability was evaluated (gray bars). Data were calculated from 3 to 5 independent experiments and are expressed as means ± SD.
as §1, with “The amounts of HBs and HBe antigens in culture supernatants were estimated by a chemiluminescent immunoassay (SRL Inc., Tokyo, Japan).” left out

[4] = test system: HepG2/NTCPA3 cells; assay: in vitro
Method: as §2, §3, §4, §5

[5] = biological target: T1, NTCP (Homo sapiens, UniProt Q14973); assay: Competitive binding assay: compounds versus myr-47WT binding to HepG2/NTCPA3 cells (FACS); conditions: compounds at 10 μM (proscillaridin A 10 to 100 μM)
T1 construct: expressed in transfected cells; plasmid pEF pGKpuro, puromycin selection
T1 sequence (Q14973 1-349): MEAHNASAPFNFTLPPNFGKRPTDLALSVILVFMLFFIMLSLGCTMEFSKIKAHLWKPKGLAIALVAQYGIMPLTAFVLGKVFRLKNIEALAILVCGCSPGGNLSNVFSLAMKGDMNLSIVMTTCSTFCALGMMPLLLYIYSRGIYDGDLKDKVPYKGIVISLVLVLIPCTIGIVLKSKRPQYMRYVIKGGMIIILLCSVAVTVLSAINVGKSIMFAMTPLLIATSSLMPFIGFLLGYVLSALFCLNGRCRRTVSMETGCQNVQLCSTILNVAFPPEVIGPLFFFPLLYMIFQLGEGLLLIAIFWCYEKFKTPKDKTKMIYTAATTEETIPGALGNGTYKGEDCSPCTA
Method: After washing twice with 2% FBS/PBS, the resulting cells were analyzed by FACS analysis.
Supplementary Figure 5. Effects of compounds on the binding ability of preS1 lipopeptide to HepG2/NTCPA3 cells. a and b. HepG2/NTCPA3 cells were pretreated with DMSO for 30 min and then were treated with myr-47N9K (a) or myr-47WT (b) in the presence of DMSO for an additional 30 min. The resulting cells were subjected to FACS analysis. c to h. HepG2/NTCPA3 cells were pretreated with the indicated concentration of each compound for 30 min and then were treated with myr-47WT in the presence of each compound for an additional 30 min. […]
fluvastatin (d), proscillaridin A (e, f and g), and azelastine (h) on preS1 binding were analyzed using FACS analysis, as described in the Materials and Methods section.
(1 picture or pasted object on this page, not shown here)

[6] = test system: HBV; assay: Supernatant HBe antigen after HBV infection in the presence of compound (chemiluminescence immunoassay); assay type: cell-based, Hepatitis B virus (genotype D); conditions: non-adherent HepG2/NTCPA3 cells, HBV 1,000 GEq/cell, supernatant at 12 dpi
Method: as §1
Cell viability was measured
Culture supernatants were collected at
antigen was quantified by a chemiluminescence immunoassay. j. HepG2/NTCPA3 cells

[7] = test system: NTCP; conditions: read-out: IC50 for inhibition of NTCP-mediated taurocholic acid uptake; cited from earlier work
[8] = non-adherent HepG2/NTCPA3 cells, compound from 1 h pre-infection to 1 dpi
[9] = non-adherent HepG2/NTCPA3 cells, HBV 1,000 GEq/cell, compound from 1 h pre-infection to 1 dpi, HBV RNA at 6 dpi

SMILES | IC50 ([1]; HepG2, 1 h) [nM] | Selectivity Index [1] | Inhibition of HBV infection (in words) [1, 8] | CC50 [2] [nM] | IC50 [1, 9] [nM] | also measured
C[C@@H]1O[C@@H](O[C@H]2CC[C@]3(C=O)[C@H]4CC[C@]5(C)[C@@H](C6=CC(=O)OC6)CC[C@]5(O)[C@@H]4CC[C@]3(O)C2)[C@H](O)[C@H](O)[C@H]1O [Convallatoxin] | 10.7 ± 3.6 | 15.7 ± 4.7 | inhibited HBV infection in a dose-dependent manner | 156 ± 53.8 | – | –
CN1CCCC(n2nc(Cc3ccc(Cl)cc3)c3ccccc3c2=O)CC1 (stereo not drawn) [Azelastine] | – | – | – | > 30000 | > 30000 | Inhibitory effect on HBV infection (in words) ([1]; at 0.01 to 1 μM, non-adherent HepG2/NTCPA3 cells): moderate and significant inhibitory effects
C[C@H]1O[C@@H](O[C@H]2[C@@H](O)C[C@H](O[C@H]3[C@@H](O)C[C@H](O[C@H]4CC[C@@]5(C)[C@H](CC[C@@H]6[C@@H]5C[C@@H](O)[C@]5(C)[C@@H](C7=CC(=O)OC7)CC[C@]65O)C4)O[C@@H]3C)O[C@@H]2C)C[C@H](O)[C@@H]1O [Digoxin] | – | – | did not inhibit HBV infection | 1430 ± 277 | > 100 | –
CCC(C)(C)C(=O)O[C@H]1C[C@@H](C)C=C2C=C[C@H](C)[C@H](CC[C@@H]3C[C@@H](O)CC(=O)O3)[C@H]21 [Simvastatin] | 5200 ± 600 | – | – | > 30000 | – | Inhibition of HBV infection (in words) [1]: inhibited HBV infection; Amount of HBV RNA in cells treated after infection [3]: not decreased; also recorded: did not exhibit an inhibitory effect on the viral replication
CC(C)n1c(/C=C/C(O)CC(O)CC(=O)O)c(-c2ccc(F)cc2)c2ccccc21 (stereo not drawn) [Fluvastatin] | – | – | did not inhibit; also recorded: not by treatment with fluvastatin | > 100000 | > 30000 | Cytotoxicity (in words) [4]: not cytotoxic
C[C@H]1O[C@@H](O[C@H]2[C@@H](O)C[C@H](O[C@H]3[C@@H](O)C[C@H](O[C@H]4CC[C@@]5(C)[C@H](CC[C@@H]6[C@@H]5CC[C@]5(C)[C@@H](C7=CC(=O)OC7)CC[C@]65O)C4)O[C@@H]3C)O[C@@H]2C)C[C@H](O)[C@@H]1O [Digitoxin] | – | 18.9 ± 3.4 | inhibited HBV infection in a dose-dependent manner | 1730 ± 384 | 93.3 ± 15.3 | –
C[C@@H]1O[C@@H](O[C@@H]2C=C3CC[C@@H]4[C@H](CC[C@]5(C)[C@@H](c6ccc(=O)oc6)CC[C@]45O)[C@@]3(C)CC2)[C@H](O)[C@H](O)[C@H]1O [Proscillaridin A] | – | 75.5 ± 26.7 | inhibited HBV infection | 496 ± 140 | 7.2 ± 2.5 | Anti-HBV effect in non-adherent cells compared with adherent cells ([1]; 0, 10 or 30 nM, HBV 1,000 GEq/cell, HBV RNA): similar; Effect on binding of myr-47WT (200 nM) to the cell surface of HepG2/NTCPA3 [5]: negligible effect; Amount of supernatant HBe antigen [6]: reduced; Amount of HBV RNA in cells treated after infection [3]: not decreased; also recorded: did not exhibit an inhibitory effect on the viral replication; IC50 [7]: 22000 nM
C[C@]12CC[C@H](O)C[C@H]1CC[C@@H]1[C@@H]2CC[C@]2(C)[C@@H](c3ccc(=O)oc3)CC[C@]12O [Bufalin] | 32.4 ± 11.3 | 15.8 ± 4.3 | inhibited HBV infection in a dose-dependent manner | 479 ± 64.7 | – | Inhibition of HBV infection (in words) ([1]; non-adherent HepG2/NTCPA3 cells, compound from 1 h pre-infection to 1 dpi, listed as bufalin): inhibited HBV infection
